In patent publication US20260317324A1, “BIFUNCTIONAL COMPOUNDS FOR DEGRADING BRAF VIA UBIQUITIN PROTEOSOME PATHWAY” (Nurix Therapeutics, Inc., priority 2023, published 2026):

Columns and labels:
Assay type in all cases: cell-based
BRAF V600E = molecular target: T1, BRAF V600E (Homo sapiens, UniProt P15056, V600E); experiment: BRAF HiBiT degradation assay, C-terminal HiBiT-tagged BRAF V600E A375 cells (clone 1F10), Nano-Glo HiBiT Lytic assay; details: A375 (BRAF V600E, Class 1); for DC50: DC50 at 50% degradation; for Dmax: A-375, observed Dmax, % protein degraded relative to DMSO control
T1 construct: endogenous C-terminal HiBiT fusion tag on BRAF V600E allele; endogenous in cells; host or cells: A375 clone 1F10 (CRISPR-Cas9 knock-in of the HiBiT tag; parental A375 from ATCC)
How it was run: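 Luminescence from the Nano-Glo HiBiT lytic read-out gave % BRAF V600E remaining versus DMSO-treated tagged cells, with untagged A375 as background. Clone 1F10 cells (10,000/well, 24 h pre-culture) received compound at 1 μM–0.01 nM in half-log steps, 0.2% DMSO; curve fits gave DC50 at Y=50, plus observed Dmax.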

BRAF G466V = molecular target: T2, BRAF G466V (Homo sapiens, UniProt P15056, G466V); experiment: BRAF HiBiT degradation assay, C-terminal HiBiT-tagged BRAF G466V overexpressed in HCT-116 BRAF−/− cells (clone 8), Nano-Glo HiBiT Lytic assay; details: BRAF G466V (Class 3), HCT-116 BRAF−/− cells; for DC50: DC50 at 50% degradation; for Dmax: observed Dmax relative to DMSO control
T2 construct: Horizon Discovery (HCT-116 BRAF−/− cells); host or cells: HCT-116 BRAF−/− cells, clone 8, lentiviral transduction
How it was run: (§1)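 Degradation was read by Nano-Glo HiBiT lytic luminescence, normalised to DMSO-treated tagged cells with wildtype HCT-116 as background. Test cells were lentiviral clones of HCT-116 BRAF−/− carrying HiBiT-tagged mutants in RPMI/10% FBS, given compound at 0.01 nM–1 μM in duplicate. Outputs are the curve-fitted concentration giving 50% degradation and the maximal observed degradation.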

BRAF G469A = molecular target: T3, BRAF G469A (Homo sapiens, UniProt P15056, G469A); experiment: BRAF HiBiT degradation assay, C-terminal HiBiT-tagged BRAF G469A overexpressed in HCT-116 BRAF−/− cells (clone 34), Nano-Glo HiBiT Lytic assay; details: BRAF G469A (Class 2), HCT-116 BRAF−/− cells; for DC50: DC50 at 50% degradation; for Dmax: observed Dmax relative to DMSO control
T3 construct: Horizon Discovery (HCT-116 BRAF−/− cells); host or cells: HCT-116 BRAF−/− cells, clone 34, lentiviral transduction
How it was run: as §1

BRAF D594G = molecular target: T4, BRAF D594G (Homo sapiens, UniProt P15056, D594G); experiment: BRAF HiBiT degradation assay, C-terminal HiBiT-tagged BRAF D594G overexpressed in HCT-116 BRAF−/− cells (clone 63), Nano-Glo HiBiT Lytic assay; details: BRAF D594G (Class 3), HCT-116 BRAF−/− cells; for DC50: DC50 at 50% degradation; for Dmax: observed Dmax relative to DMSO control
T4 construct: Horizon Discovery (HCT-116 BRAF−/− cells); host or cells: HCT-116 BRAF−/− cells, clone 63, lentiviral transduction
How it was run: as §1

T2 sequence (P15056 whole entry G466V): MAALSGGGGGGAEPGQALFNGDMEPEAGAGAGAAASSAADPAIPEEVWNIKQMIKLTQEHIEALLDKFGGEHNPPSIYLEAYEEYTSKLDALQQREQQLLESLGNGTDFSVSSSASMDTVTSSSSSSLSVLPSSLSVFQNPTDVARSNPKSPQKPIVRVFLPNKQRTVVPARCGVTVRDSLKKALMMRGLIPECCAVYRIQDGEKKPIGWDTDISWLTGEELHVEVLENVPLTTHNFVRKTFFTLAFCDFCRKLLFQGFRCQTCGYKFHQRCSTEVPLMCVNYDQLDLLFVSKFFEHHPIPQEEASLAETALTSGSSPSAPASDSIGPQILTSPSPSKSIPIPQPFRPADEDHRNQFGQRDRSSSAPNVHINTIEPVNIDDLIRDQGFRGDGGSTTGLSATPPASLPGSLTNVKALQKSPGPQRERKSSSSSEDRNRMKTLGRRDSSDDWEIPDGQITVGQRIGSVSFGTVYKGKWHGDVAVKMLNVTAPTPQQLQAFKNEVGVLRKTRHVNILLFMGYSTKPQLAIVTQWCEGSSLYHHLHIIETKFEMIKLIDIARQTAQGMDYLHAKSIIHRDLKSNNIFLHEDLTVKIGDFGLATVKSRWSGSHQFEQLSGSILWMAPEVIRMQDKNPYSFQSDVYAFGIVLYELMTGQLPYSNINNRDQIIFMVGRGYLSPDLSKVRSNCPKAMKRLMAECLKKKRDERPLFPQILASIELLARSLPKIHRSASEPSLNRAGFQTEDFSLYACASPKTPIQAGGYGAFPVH
T3 sequence (P15056 whole entry G469A): as the sequence (P15056 whole entry G466V) above, with V466G, G469A counted along it
T4 sequence (P15056 whole entry D594G): as the sequence (P15056 whole entry G466V) above, with V466G, D594G counted along it
T1 sequence (P15056 whole entry V600E, the tested form may be a part): as the sequence (P15056 whole entry G466V) above, with V466G, V600E counted along it

SMILES	DC50 (BRAF V600E) [nM]	Dmax (BRAF V600E) [%]	DC50 (BRAF G466V) [nM]	Dmax (BRAF G466V) [%]	DC50 (BRAF G469A) [nM]	Dmax (BRAF G469A) [%]	DC50 (BRAF D594G) [nM]	Dmax (BRAF D594G) [%]
C[C@@H]1CN(c2ccc(-n3cc(-c4cc(Cl)cc(NS(=O)(=O)N5CCCC5)c4F)c(-c4ccncc4)n3)nc2)CCN1CC1CCN(c2ccc(N3CCC(=O)NC3=O)cc2)CC1 [Compound 324, N-[5-chloro-3-(1-{5-[(3R)-4-({1-[4-(2,4-dioxo-1,3-diazinan-1-yl)phenyl]piperidin-4-yl}methyl)-3-methylpiperazin-1-yl]pyridin-2-yl}-3-(pyridin-4-yl)-1H-pyrazol-4-yl)-2-fluorophenyl]pyrrolidine-1-sulfonamide]	< 10	> 70	< 10	30 to 70	50 to 500	30 to 70	< 10	30 to 70
C[C@@H]1CN(c2ccc(-n3cc(-c4cc(Cl)cc(NS(=O)(=O)N5CCCC5)c4F)c(-c4ccncc4)n3)nc2)CCN1CC1CCN(c2ccc([C@H]3CCC(=O)NC3=O)cn2)CC1 [Compound 325, N-[5-chloro-3-(1-{5-[(3R)-4-[(1-{5-[(3R)-2,6-dioxopiperidin-3-yl]pyridin-2-yl}piperidin-4-yl)methyl]-3-methylpiperazin-1-yl]pyridin-2-yl}-3-(pyridin-4-yl)-1H-pyrazol-4-yl)-2-fluorophenyl]pyrrolidine-1-sulfonamide]	< 10	> 70	< 10	> 70	10 to 50	> 70	< 10	> 70
C[C@@H]1CN(c2ccc(-n3cc(-c4cc(Cl)cc(NS(=O)(=O)N5CCCC5)c4F)c(-c4ccncc4)n3)nc2)CCN1CC1CCN(c2ccc([C@H]3CCC(=O)NC3=O)cc2)CC1 [Compound 326, N-[5-chloro-3-(1-{5-[(3R)-4-[(1-{4-[(3R)-2,6-dioxopiperidin-3-yl]phenyl}piperidin-4-yl)methyl]-3-methylpiperazin-1-yl]pyridin-2-yl}-3-(pyridin-4-yl)-1H-pyrazol-4-yl)-2-fluorophenyl]pyrrolidine-1-sulfonamide]	< 10	> 70	< 10	> 70	10 to 50	30 to 70	< 10	> 70
O=C1CC[C@H](c2ccc(N3CCC(CN4CCN(c5ccc(-n6cc(-c7cc(Cl)cc(NS(=O)(=O)N8CC(F)C8)c7F)c(-c7ccncc7)n6)cc5)CC4)CC3)nc2)C(=O)N1 [Compound 331, N-{5-chloro-3-[1-(4-{4-[(1-{5-[(3R)-2,6-dioxopiperidin-3-yl]pyridin-2-yl}piperidin-4-yl)methyl]piperazin-1-yl}phenyl)-3-(pyridin-4-yl)-1H-pyrazol-4-yl]-2-fluorophenyl}-3-fluoroazetidine-1-sulfonamide]	< 10	> 70	< 10	> 70	< 10	> 70	< 10	30 to 70
O=C1CC[C@H](c2ccc(N3CCC(CN4CCN(c5ccc(-n6cc(-c7cc(Cl)cc(NS(=O)(=O)N8CC(F)C8)c7F)c(-c7ccncc7)n6)cc5)CC4)CC3)cc2)C(=O)N1 [Compound 333, N-{5-chloro-3-[1-(4-{4-[(1-{4-[(3R)-2,6-dioxopiperidin-3-yl]phenyl}piperidin-4-yl)methyl]piperazin-1-yl}phenyl)-3-(pyridin-4-yl)-1H-pyrazol-4-yl]-2-fluorophenyl}-3-fluoroazetidine-1-sulfonamide]	< 10	> 70	< 10	> 70	< 10	30 to 70	< 10	30 to 70
O=C1CC[C@H](c2ccc(N3CCC(CN4CCN(c5ccc(-n6cc(-c7cc(Cl)cc(NS(=O)(=O)N8CC[C@@H](F)C8)c7F)c(-c7ccncc7)n6)c(F)c5)CC4)CC3)nc2)C(=O)N1 [Compound 334, (3R)—N-{5-chloro-3-[1-(4-{4-[(1-{5-[(3R)-2,6-dioxopiperidin-3-yl]pyridin-2-yl}piperidin-4-yl)methyl]piperazin-1-yl}-2-fluorophenyl)-3-(pyridin-4-yl)-1H-pyrazol-4-yl]-2-fluorophenyl}-3-fluoropyrrolidine-1-sulfonamide]	< 10	> 70	< 10	> 70	10 to 50	> 70	< 10	> 70
O=C1CC[C@H](c2ccc(N3CCC(CN4CCN(c5ccc(-n6cc(-c7cc(Cl)cc(NS(=O)(=O)N8CC[C@@H](F)C8)c7F)c(-c7ccncc7)n6)c(F)c5)CC4)CC3)cc2)C(=O)N1 [Compound 336, (3R)—N-{5-chloro-3-[1-(4-{4-[(1-{4-[(3R)-2,6-dioxopiperidin-3-yl]phenyl}piperidin-4-yl)methyl]piperazin-1-yl}-2-fluorophenyl)-3-(pyridin-4-yl)-1H-pyrazol-4-yl]-2-fluorophenyl}-3-fluoropyrrolidine-1-sulfonamide]	< 10	> 70	< 10	> 70	10 to 50	> 70	< 10	> 70
O=C1CC[C@H](c2ccc(N3CCC(CN4CCN(c5ccc(-n6cc(-c7cc(Cl)cc(NS(=O)(=O)N8CC(F)C8)c7F)c(-c7ccncc7)n6)c(F)c5)CC4)CC3)cc2)C(=O)N1 [Compound 338, N-{5-chloro-3-[1-(4-{4-[(1-{4-[(3R)-2,6-dioxopiperidin-3-yl]phenyl}piperidin-4-yl)methyl]piperazin-1-yl}-2-fluorophenyl)-3-(pyridin-4-yl)-1H-pyrazol-4-yl]-2-fluorophenyl}-3-fluoroazetidine-1-sulfonamide]	< 10	> 70	< 10	> 70	< 10	30 to 70	< 10	30 to 70
O=C1CCN(c2ccc(N3CCC(CN4CCN(c5ccc(-n6cc(-c7cc(Cl)cc(NS(=O)(=O)N8CC(F)C8)c7F)c(-c7ccncc7)n6)c(F)c5)CC4)CC3)cc2)C(=O)N1 [Compound 339, N-[5-chloro-3-(1-{4-[4-({1-[4-(2,4-dioxo-1,3-diazinan-1-yl)phenyl]piperidin-4-yl}methyl)piperazin-1-yl]-2-fluorophenyl}-3-(pyridin-4-yl)-1H-pyrazol-4-yl)-2-fluorophenyl]-3-fluoroazetidine-1-sulfonamide]	< 10	> 70	< 10	30 to 70	> 500	< 30	10 to 50	30 to 70
O=C1CC[C@H](c2ccc(N3CCC(CN4CCN(c5ccc(-n6cc(-c7cc(Cl)cc(NS(=O)(=O)N8CCCC8)c7F)c(-c7ccncc7)n6)cc5)CC4)CC3)cc2F)C(=O)N1 [Compound 344, N-{5-chloro-3-[1-(4-{4-[(1-{4-[(3R)-2,6-dioxopiperidin-3-yl]-3-fluorophenyl}piperidin-4-yl)methyl]piperazin-1-yl}phenyl)-3-(pyridin-4-yl)-1H-pyrazol-4-yl]-2-fluorophenyl}pyrrolidine-1-sulfonamide]	< 10	> 70	< 10	> 70	< 10	> 70	< 10	> 70
O=C1CC[C@H](c2ccc(N3CCC(CN4CCCN(c5ccc(-n6cc(-c7cc(Cl)cc(NS(=O)(=O)N8CCCC8)c7F)c(-c7ccncc7)n6)c(F)c5)CC4)CC3)cc2)C(=O)N1 [Compound 346, N-{5-chloro-3-[1-(4-{4-[(1-{4-[(3R)-2,6-dioxopiperidin-3-yl]phenyl}piperidin-4-yl)methyl]-1,4-diazepan-1-yl}-2-fluorophenyl)-3-(pyridin-4-yl)-1H-pyrazol-4-yl]-2-fluorophenyl}pyrrolidine-1-sulfonamide]	< 10	> 70	> 500	30 to 70	> 500	< 30	> 500	< 30
